Laboratory results reported in ChEMBL document CHEMBL5724914, “Linking interpersonal differences in gut microbiota composition and drug biotransformation activity” (2024).

Key:
[1] = (§1) The drug is tested on Z-027 corresponding to metagenome with ENA study accession number: PRJEB37062 and ENA sample accession number: ERS12561826 for biotransformation under anaerobic condition. The drug concentrations were measured over 9 timepoints collected between 0 and 24 hours of incubation by liquid-chromatography-coupled mass spectrometry (LC–MS); settings: 2 µM
[2] = (§2) The drug is tested on Z-024 corresponding to pig gut metagenome with ENA study accession number: PRJEB37062 and ENA sample accession number: ERS12561823 for biotransformation under anaerobic condition. The drug concentrations were measured over 9 timepoints collected between 0 and 24 hours of incubation by liquid-chromatography-coupled mass spectrometry (LC–MS); settings: 2 µM
[3] = as §2, with “Z-019” for “Z-024”, “rat” for “pig”, “ERS12561818” for “ERS12561823”; settings: 2 µM
[4] = as §2, with “Z-018” for “Z-024”, “ERS12561817” for “ERS12561823”; settings: 2 µM
[5] = as §2, with “Z-017” for “Z-024”, “mouse” for “pig”, “ERS12561816” for “ERS12561823”; settings: 2 µM
[6] = as §1, with “Z-012” for “Z-027”, “ERS12561812” for “ERS12561826”; settings: 2 µM
[7] = as §1, with “Z-010” for “Z-027”, “ERS12561810” for “ERS12561826”; settings: 2 µM
[8] = as §2, with “Z-009” for “Z-024”, “ERS12561809” for “ERS12561823”; settings: 2 µM
[9] = as §2, with “Z-003” for “Z-024”, “ERS12561803” for “ERS12561823”; settings: 2 µM
[10] = as §2, with “WLS-370” for “Z-024”, “human” for “pig”, “ERS12561793” for “ERS12561823”; settings: 2 µM
[11] = as §2, with “WLS-310” for “Z-024”, “human” for “pig”, “ERS12561785” for “ERS12561823”; settings: 2 µM
[12] = as §2, with “WLS-240” for “Z-024”, “human” for “pig”, “ERS12561773” for “ERS12561823”; settings: 2 µM
[13] = as §2, with “WLS-052” for “Z-024”, “human” for “pig”, “ERS12561747” for “ERS12561823”; settings: 2 µM
[14] = as §2, with “WLS-010” for “Z-024”, “human” for “pig”, “ERS12561743” for “ERS12561823”; settings: 2 µM
[15] = human gut metagenome, 24 h, 2 µM
[16] = human gut metagenome, 24 h, 2 µM; remark: listed apart in the source
[17] = human gut metagenome, 24 h, 2 µM; remark: listed apart in the source
[18] = human gut metagenome, 24 h, 2 µM; remark: listed apart in the source
[19] = human gut metagenome, 24 h, 2 µM; remark: listed apart in the source
[20] = human gut metagenome, 24 h, 2 µM; remark: listed apart in the source
Further: call rule not given here.

| SMILES | Bacterial Biotransformation [1] | Bacterial Biotransformation [2] | Bacterial Biotransformation [3] | Bacterial Biotransformation [4] | Bacterial Biotransformation [5] | Bacterial Biotransformation [6] | Bacterial Biotransformation [7] | Bacterial Biotransformation [8] | Bacterial Biotransformation [9] | Bacterial Biotransformation [10] | Bacterial Biotransformation [11] | Bacterial Biotransformation [12] | Bacterial Biotransformation [13] | Bacterial Biotransformation [14] | Bacterial Biotransformation [15] | Bacterial Biotransformation [16] | Bacterial Biotransformation [17] | Bacterial Biotransformation [18] | Bacterial Biotransformation [19] | Bacterial Biotransformation [20] |
| --- | --- | --- | --- | --- | --- | --- | --- | --- | --- | --- | --- | --- | --- | --- | --- | --- | --- | --- | --- | --- |
| C[C@@H](CO)NC(=O)[C@@H]1C=C2c3cccc4[nH]cc(c34)C[C@H]2N(C)C1.O=C(O)/C=C\C(=O)O [ERGONOVINE MALEATE] | Compound NOT metabolized | Compound NOT metabolized | Compound NOT metabolized | Compound metabolized | Compound NOT metabolized | Compound NOT metabolized | Compound NOT metabolized | Compound NOT metabolized | Compound NOT metabolized | Compound metabolized | Compound metabolized | Compound metabolized | Compound metabolized | Compound metabolized | Compound metabolized | Compound metabolized | Compound NOT metabolized | Compound metabolized | Compound metabolized | Compound NOT metabolized |
| CCN(CC)C(C)CN1c2ccccc2Sc2ccccc21 (stereo not given) [ETHOPROPAZINE] | Compound NOT metabolized | Compound metabolized | Compound NOT metabolized | Compound metabolized | Compound NOT metabolized | Compound metabolized | Compound metabolized | Compound metabolized | Compound metabolized | Compound metabolized | Compound metabolized | Compound metabolized | Compound metabolized | Compound metabolized | Compound metabolized | Compound metabolized | Compound metabolized | Compound metabolized | Compound metabolized | Compound metabolized |
| Cc1nc(-c2ccc(OCC(C)C)c(C#N)c2)sc1C(=O)O [FEBUXOSTAT] | Compound metabolized | Compound metabolized | Compound NOT metabolized | Compound metabolized | Compound NOT metabolized | Compound NOT metabolized | Compound metabolized | Compound NOT metabolized | Compound metabolized | Compound metabolized | Compound metabolized | Compound metabolized | Compound metabolized | Compound metabolized | Compound metabolized | Compound metabolized | Compound metabolized | Compound metabolized | Compound metabolized | Compound metabolized |
| CC(C)(C(=O)O)c1ccc(C(O)CCCN2CCC(C(O)(c3ccccc3)c3ccccc3)CC2)cc1 (stereo not given) [FEXOFENADINE] | Compound NOT metabolized | Compound metabolized | Compound NOT metabolized | Compound NOT metabolized | Compound NOT metabolized | Compound NOT metabolized | Compound NOT metabolized | Compound NOT metabolized | Compound NOT metabolized | Compound NOT metabolized | Compound NOT metabolized | Compound NOT metabolized | Compound NOT metabolized | Compound NOT metabolized | Compound NOT metabolized | Compound NOT metabolized | Compound NOT metabolized | Compound NOT metabolized | Compound NOT metabolized | Compound NOT metabolized |
| COc1ccc2c3c1O[C@H]1C[C@@H](O)C=C[C@@]31CCN(C)C2 [GALANTAMINE] | Compound NOT metabolized | Compound NOT metabolized | Compound NOT metabolized | Compound NOT metabolized | Compound NOT metabolized | Compound NOT metabolized | Compound metabolized | Compound NOT metabolized | Compound NOT metabolized | Compound NOT metabolized | Compound metabolized | Compound metabolized | Compound NOT metabolized | Compound metabolized | Compound NOT metabolized | Compound NOT metabolized | Compound NOT metabolized | Compound metabolized | Compound metabolized | Compound NOT metabolized |
| Cc1ccc(S(=O)(=O)NC(=O)NN2CC3CCCC3C2)cc1 (stereo not given) [GLICLAZIDE] | Compound metabolized | Compound metabolized | Compound NOT metabolized | Compound metabolized | Compound NOT metabolized | Compound metabolized | Compound metabolized | Compound metabolized | Compound metabolized | Compound metabolized | Compound metabolized | Compound metabolized | Compound metabolized | Compound metabolized | Compound metabolized | Compound metabolized | Compound metabolized | Compound metabolized | Compound metabolized | Compound metabolized |
| COC1=CC(=O)C[C@@H](C)[C@]12Oc1c(Cl)c(OC)cc(OC)c1C2=O [GRISEOFULVIN] | Compound metabolized | Compound metabolized | Compound NOT metabolized | Compound metabolized | Compound metabolized | Compound metabolized | Compound metabolized | Compound metabolized | Compound metabolized | Compound metabolized | Compound metabolized | Compound metabolized | Compound metabolized | Compound metabolized | Compound metabolized | Compound metabolized | Compound metabolized | Compound metabolized | Compound metabolized | Compound metabolized |
| N#Cc1ccc(C(c2ccc(C#N)cc2)n2cncn2)cc1 [LETROZOLE] | Compound NOT metabolized | Compound metabolized | Compound NOT metabolized | Compound NOT metabolized | Compound NOT metabolized | Compound NOT metabolized | Compound NOT metabolized | Compound NOT metabolized | Compound NOT metabolized | Compound NOT metabolized | Compound NOT metabolized | Compound NOT metabolized | Compound NOT metabolized | Compound NOT metabolized | Compound NOT metabolized | Compound NOT metabolized | Compound NOT metabolized | Compound NOT metabolized | Compound NOT metabolized | Compound NOT metabolized |
